From the METLIN SMRT retention time set (Domingo-Almenara et al. 2019)

Assay: gradient 5% acetonitrile 3 min, to 50% in 2 min, to 85% in 15 min, held 3 min, 100 µL/min
Conditions: column: Zorbax Extend-C18 2.1 x 50 mm; eluents: water / acetonitrile, 0.1% formic acid
In short: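 A Zorbax Extend-C18 column (2.1 × 50 mm, 1.8 μm) run at 100 μL/min with water and acetonitrile, both containing 0.1% formic acid, separated mixtures of ~100 pure standards. The HPLC was coupled to a quadrupole time-of-flight mass spectrometer operated in positive and negative ionization mode, with dead and dwell volumes of 40 μL and 900 μL. Each retention time was taken from a computationally picked adduct peak that was then manually inspected.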

Compound | RP-LC retention time [s]
CCCC(=O)Nc1nc2ccc(CCC(=O)Nc3cc(Cl)c(OC)cc3OC)cc2s1 | 920
CC1=C(C(=O)OC(C)C)C(c2cccc(Oc3ccccc3)c2)NC(=O)N1 (centres undefined) | 938
CCCn1ccc2sc(C)c(C(=O)NC(C)c3ccccc3)c2c1=O (centres undefined) | 900
Cc1sc(-c2cc(C(F)(F)F)on2)cc1S(=O)(=O)Nc1ccc(F)cc1 | 1120
Cc1ccc(CNC(=O)C(C)n2nc(C)c3c(C)n(-c4ccccc4)nc3c2=O)o1 (centres undefined) | 736
COc1ccc2c(c1)C1(CCN(C(=O)c3ccc(F)c(F)c3)C1)C(=O)N2C (centres undefined) | 634
Cc1oc(-c2[nH]ncc2C(=O)N(C)C)cc1S(=O)(=O)Nc1ccc(Cl)cc1 | 703
Cc1nc(-c2cn(C(C)C)c3ncccc23)sc1C(=O)Nc1ccccc1F | 1090
Cc1cccc(Nc2nc(C(=O)NCc3ccc(F)cc3F)cs2)n1 | 843
COc1cc(C)c(Cc2cnc(N)nc2N)cc1OC | 623
CCOC(=O)C(=O)Nc1ccc(OC)c(OC)c1 | 650
COC(=O)c1ccccc1NC(=O)CSc1nnc2c3cc(-c4ccc(F)cc4)nn3ccn12 | 957
COCCNC(=O)Cn1c(=O)c2cccn2c2ccccc21 | 655
Cc1ccc(CNC(=O)c2cn3ccncc3n2)cc1 | 686
CCCn1cc(CCNC(=O)c2cncc(Br)c2)c2cccnc21 | 723
O=C(NCCc1ccccc1)NC(c1ccccc1)c1nnc(-c2ccccc2)o1 (centres undefined) | 876
CCCNC(=O)Cc1cn2cc(Br)ccc2n1 | 570
COc1ccc2[nH]cc(CCNC(=O)c3cc(Cl)ccc3OC)c2c1 | 883
CCS(=O)(=O)N1CC(F)(F)C[C@H]1c1nnc(-c2ccccc2)o1 | 824

Compound | RP-LC retention time [s]
O=C(COc1ccc2ccccc2c1)NCC(O)c1ccc(C(F)(F)F)cc1 (centres undefined) | 898
CCOC(=O)c1nc(N(C)c2cccc(Cl)c2)c2ccccc2n1 | 982
CCCc1c(C(=O)O)nnn1Cc1ccccc1 | 746
O=C1Cc2c(-c3ccccc3)cc(-c3cccc(Cl)c3)nc2-c2ccccc2N1 | 1260
Cc1ccc(-c2noc(-c3ccc(=O)n(Cc4cc(C)ccc4C)c3)n2)cc1 | 1260
CCc1noc(-c2cnc3nc(C)ccc3c2Nc2ccc3c(c2)OCO3)n1 | 720
COc1cccc(Cn2c(=O)c3sccc3n(Cc3nc(-c4ccc(Cl)c(F)c4)no3)c2=O)c1 | 1180
COc1ccc(-c2nc(-c3ccc4oc(-c5ccccc5)nc4c3)no2)cn1 | 1430
CCCCOc1ccc(-c2cc3c4nnc(CCC(=O)NCc5cccc(OC)c5)n4ccn3n2)cc1 | 946
Cc1ccc(S(=O)(=O)N2CC(=O)N(CCC(C)C)C(C)(C(=O)NCc3ccccc3)C2)cc1 (centres undefined) | 1040
O=C(NCCn1c(=O)n(Cc2ccccc2)c2cccnc21)c1nccc2ccccc12 | 836
COC(=O)c1ccc(Cl)cc1NC(=O)NCCCn1c(C(F)(F)F)nc2cccnc21 | 1020
COc1ccc(N2C(=O)C3N=NN(Cc4nc(-c5ccc(Br)cc5)no4)C3C2=O)cc1 (centres undefined) | 1020
Nc1ncncc1-c1ccc2ccccc2c1 | 668
Cc1nc(OCC(=O)NCc2cccc(Cl)c2)c2c(C)c(C)oc2n1 | 929
O=C(Cn1c(=O)oc2ccccc21)Nc1nc(-c2ccc(Cl)cc2)cs1 | 1020
COc1ccc(CCc2nc3nccc(-c4ccc5c(c4)OCCCO5)n3n2)cc1OC | 874
CN(CCc1noc(-c2ccccc2)n1)C(=O)NCCc1ccccc1 | 896
COc1cccc(NC(=O)c2csc(-c3cn(C)c4ncccc34)n2)c1 | 978

Second part, the compound after the results:

RP-LC retention time [s] | Compound
860 | Cc1ccc(-c2nnc(-c3cccc(S(=O)(=O)N4CCC(C(=O)O)CC4)c3)o2)cc1
838 | O=C(NCc1ccc(F)cc1)C1CCCN(S(=O)(=O)c2c[nH]c(C(=O)N3CCCCCC3)c2)C1 (centres undefined)
972 | Cc1ccc(CNC(=O)N2c3ccccc3CC2c2nc(C3CC3)no2)cc1 (centres undefined)
700 | O=c1ccc(N2CCC(NS(=O)(=O)c3cccnc3)CC2)nn1CC1CC1
740 | CC(C)CN1C(=O)c2ccccc2C(C(=O)NCCCN2CCCC2=O)C1c1cccs1 (centres undefined)
704 | CCn1cnc(S(=O)(=O)N2CCC(C(=O)Nc3ccc(OC)c(OC)c3)CC2)c1
641 | Cc1cc(NC(=O)N2CCN(CCn3c(C)nc4cccnc43)CC2)ccc1Br
912 | CCc1ccccc1NC(=O)C1CCN(S(C)(=O)=O)c2ccccc2O1 (centres undefined)
717 | C[C@H]1CN(C(=O)c2ccc(C#N)cc2)C[C@@H]1c1nc(-c2ccncc2)no1
564 | Cc1ccc(C(=O)N2CCc3[nH]cnc3C23CCCC3)c(C)c1
625 | Cc1ccc2c(=O)c(C(=O)N3CCCC3)cn(CC(=O)NCc3ccc4c(c3)OCO4)c2n1
751 | CCCCNC(=O)C1CCCN(c2nnc3ccc(C(F)(F)F)cn23)C1 (centres undefined)
863 | O=C(CN1C(=O)C2CCCCN2c2ccc(C(=O)N3CCCC3)cc21)NCc1ccc(F)cc1Cl (centres undefined)
617 | Cc1nnsc1C(=O)N1CCC(c2nnc(-c3ccco3)o2)CC1
685 | CCN(CC)S(=O)(=O)c1ccc2nc(N3CCN(Cc4ccc5c(c4)OCO5)CC3)cnc2c1
590 | Cc1ccccc1OCC(=O)N1CC(CN(C)C)C2(CCOCC2)C1 (centres undefined)
1150 | CCCC(=O)N1CCc2c([nH]c3ccccc23)C1c1cccc(OCC)c1 (centres undefined)
583 | CCN1C(=O)Cc2cc(C(=O)N3CCN(C4CCCCC4)CC3)ccc21
742 | CN1C(=O)c2cc(C(=O)N3CCN(c4ncccn4)CC3)nn2CC1(C)C(=O)NC1CCCCCC1 (centres undefined)
855 | O=C(Nc1nc2c(s1)CN(S(=O)(=O)C1CC1)CC2)c1cnn(-c2ccccc2)n1
544 | O=C(COc1ccc(Cl)cc1)NCC#CCN1CCCC1
842 | CCOC(=O)C1CCN(C(=O)Cn2nc(C)c3sc(-c4ccccc4)nc3c2=O)CC1
882 | CCOc1ccc(OCC)c(NC(=O)C2CCN(C(=O)C3Sc4ccccc4NC3=O)CC2)c1 (centres undefined)
762 | O=C(NCC1CCCO1)c1ccccc1NC(=O)C1CCN(C(=O)c2ccc(F)cc2)CC1 (centres undefined)
782 | CCc1ccccc1NC(=O)N1CCC(c2nc(C(=O)N3CCCC3)c(C)o2)CC1
877 | O=C(NCCCc1ccccc1)c1ccc2c(c1)CCN2C(=O)C1CC1

RP-LC retention time [s] | Compound
674 | CC(C)c1nc2c(c(=O)n1CC(=O)Nc1ccccc1)CCN(Cc1ccccc1)C2
656 | CC(C)CN1CCn2cc(C(=O)NCc3cccc(Br)c3)nc2C1
689 | Cc1cccc(NC(=O)N2CCC(c3nc(C(=O)N(C)C)c(C)o3)CC2)c1
668 | CCn1c(=O)c(SCC(=O)NCC2CCN(Cc3ccc(C)cc3)C2)nc2ccccc21 (centres undefined)
661 | CC1CCN(C2=NCCN2C(=O)c2ccc(F)cc2)CC1
983 | CCOc1ccccc1NC(=O)N1CCCC(C)(C(=O)NCc2ccc(F)cc2)C1 (centres undefined)
682 | COc1cccc2c(Nc3ccc(N(C)C)cc3)cc(C(=O)N3CCSCC3)nc12
998 | O=C(c1cccs1)N1CCN(S(=O)(=O)c2cc(-c3noc(C4CCC4)n3)cs2)CC1
668 | Cc1ccc(NC(=O)N2CCCC2C(=O)NC2CC2)cc1 (centres undefined)
708 | CC(C)CNC(=O)c1ccc2c(c1)N(C)C(=O)CS2
1150 | COc1ccc(S(=O)(=O)N2CCC(c3noc(-c4ccc(C)cc4)n3)CC2)cc1
964 | Cc1ccc(NC(=O)C2CCCN(c3ccc(=O)n(-c4cccc(Cl)c4)n3)C2)c(C)c1 (centres undefined)
830 | COc1ccccc1-c1noc(C2CCCN2C(=O)c2ccc3cc[nH]c3c2)n1 (centres undefined)
626 | O=C(CCNc1cnc2cnccn12)NCCC1=CCCCC1
843 | CCCN(CC1CCOC1)C(=O)Nc1ccc(Cl)cc1 (centres undefined)
678 | Cc1noc2nc(C)n(CC(=O)NC3CCCC3)c(=O)c12
652 | O=C(c1ccc(F)c(F)c1)N1CCc2[nH]cnc2C1c1ccccc1 (centres undefined)
629 | CCc1nc2c(c(=O)n1CC(=O)NCc1ccccc1)CN(Cc1ccccc1)CC2
662 | CN1CCn2cc(S(=O)(=O)Nc3cccc(C#N)c3)cc2C1=O
576 | Cc1ccc(S(=O)(=O)N(C)CCCC(=O)N2CCN(c3ccccn3)CC2)cc1
812 | CCC(=O)N1CCc2cc(CNS(=O)(=O)c3ccc(OC)cc3)ccc21
753 | COc1ccc(Cl)cc1NC(=O)CSc1ccc(N2CCCC(C(=O)NC3CC3)C2)nn1 (centres undefined)
888 | COc1ccc(CCS(=O)(=O)NCC2CCN(C(=O)Oc3ccccc3)CC2)cc1
687 | COc1ccc2c(=O)c(Oc3ccc(C(=O)NC4CCS(=O)(=O)C4)cc3)coc2c1 (centres undefined)
658 | CCn1cc(CN2CCC(C(=O)NCc3ccco3)CC2)c2ccccc21
